According to paper PMC8621101, “Inhibition of XPO-1 Mediated Nuclear Export through the Michael-Acceptor Character of Chalcones” (Pharmaceuticals, 2021):

How the values were obtained:
[1] = Stability in phosphate-buffered solution (PBS); type: physicochemical
Text: It has been described by performing kinetic measurements in α-X-2′3,4,4’-tetramethylchalcones that the nature of the substituent at position α of the chalcone affects their reactivity as electrophiles versus thiol groups. In such series, the α-COOEt substituent led to a similar reactivity as that of the α-H chalcone; the α-CH3 chalcone was poorly electrophilic, while the α-CN chalcone was the most electrophilic. Thus, in the naphthyl series (Figure 3), the synthesis of the chalcones where R1 = H, COOCH3, CH3 or CN was accomplished. The reaction of 1-(naphthalen-2-yl)ethan-1-one (11) with pyrimidine-5-carbaldehyde in the presence of Ba(OH)2 afforded α-H chalcone 9 in a 55% yield (Scheme 1). […] Reaction of the ester 12 with NH3/dioxane at 110 °C [29] led to the amide 14 that was further transformed into the chalcone 15. On the other hand, reaction of naphthalene 16 with propionyl chloride under Friedel–Crafts acylation conditions, as described, provided the 2-acyl derivative 17, together with a small proportion of its 1-isomer. This mixture of isomers reacted with pyrimidine-5-carbaldehyde to yield the α-CH3 chalcone 18 (30%). Finally, the synthesis of the α-CN derivative was addressed by the reaction of 2-methylnaphthoate (19) with acetonitrile to provide 3-oxopropanenitrile 20 [32], which was further transformed into the α-CN chalcone 21.

[2] = system: Hap-1 cells; assay: Cell proliferation assay (IncuCyte confluence), Hap-1; type: cell-based; conditions: Homo sapiens, HAP1; Hap-1 chronic myeloid leukemia; 72 h; mean of two independent experiments ± SEM; read-out: IC50 antiproliferative activity Hap-1
Method: (§1) Cancer cell lines HCT-116, NCI-H460, HL-60, K-562 and Z-138 were acquired from the American Type Culture Collection (ATCC, Manassas, VA, USA). The DND-41 cell line was purchased from the Deutsche Sammlung von Mikroorganismen und Zellkulturen (DSMZ Leibniz-Institut, Brunswick, Germany), and the HAP-1 cell line was ordered from Horizon Discovery (Horizon Discovery Group, Water Beach, UK). All cell lines were cultured as recommended by the suppliers. Culture media were purchased from Gibco Life Technologies and supplemented with 10% fetal bovine serum (HyClone, GE Healthcare Life Sciences, Chicago, Illinois, USA).
(§2) Adherent cell lines HCT-116, NCI-H460 and Hap-1 cells were seeded at a density between 500 and 1500 cells per well in 384-well tissue culture plates (Greiner). After overnight incubation, cells were treated with different concentrations of the test compounds. Suspension cell lines HL-60, K-562, Z-138 and DND-41 were seeded at densities ranging from 2500 to 5500 cells per well in 384-well culture plates containing the test compounds at the same concentration points.

[3] = target: T1, XPO1^C528S (Jurkat XPO1^C528S) (Homo sapiens, UniProt O14980, C528S); assay: RanBP1 immunofluorescence (XPO1-mediated nuclear export) in mutant XPO1^C528S Jurkat cells; type: cell-based; conditions: positive control at 1 μM, 3 h
T1 construct: CRISPR/Cas9 genome editing of the Jurkat cell line was performed as in Neggers et al. [43] to generate a XPO1^C528S mutant cell line; endogenous in cells; host or cells: Jurkat cells genome-edited by CRISPR/Cas9 at the XPO1 locus (XPO1^C528S)
Method: (§3) The effect of the mutation on the activity of the inhibitors was assessed by the visualization of the subcellular localization of the XPO1 cargo RanBP1.
(§4) Stably transfected HeLa NLSSV40-AcGFP-NESPKI were cultured as described in Vercruysse et al.
(§5) Cells were harvested at 400× g, washed in PBS and then transferred into an 8-well µ-Slide (Ibidi) pretreated with 0.1% (w/v) poly-L-lysine (Sigma). Cells were allowed to adhere to the slides and then subsequently fixed (4% PFA in PBS), washed and permeabilized (0.2% Triton X-100 in PBS). Further immunofluorescence staining was then performed according to standard procedures. Employed antibodies were rabbit anti-RanBP1 (ab97659, Abcam, Cambridge, UK) at a 1:500 dilution and secondary Alexa Fluor 488 goat anti-rabbit antibody (A11008, Invitrogen, ThermoFisher Scientific). Cell nuclei were counterstained with DAPI, and the samples were imaged by confocal microscopy on a Leica TCS SP5 confocal microscope (Leica Microsystems, Weitzlar, Germany), employing a HCX PL APO 63× (NA 1.2) water immersion objective. Subsequently, fluorescence was read on an ArrayScan XTI High Content Reader (Thermo Fisher Scientific, Waltham, MA, USA). Nuclear and cytoplasmic compartments were segmented, and their average pixel intensities in the green channel were quantitated similarly as for the XPO1 phenotypic reporter assay.

[4] = system: HL-60 cells; assay: Cell proliferation assay (IncuCyte confluence), HL-60; type: cell-based; conditions: Homo sapiens; HL-60 acute myeloid leukemia; 72 h; mean of two independent experiments ± SEM; read-out: IC50 antiproliferative activity HL-60
Method: as §1, §2

[5] = system: Z-138 cells; assay: Cell proliferation assay (IncuCyte confluence), Z-138; type: cell-based; conditions: Homo sapiens; Z-138 non-Hodgkin lymphoma; 72 h; mean of two independent experiments ± SEM; read-out: IC50 antiproliferative activity Z-138
Method: as §1, §2

[6] = system: NCI-H460 cells; assay: Cell proliferation assay (IncuCyte confluence), NCI-H460; type: cell-based; conditions: Homo sapiens; NCI-H460 lung carcinoma; 72 h; mean of two independent experiments ± SEM; read-out: IC50 antiproliferative activity NCI-H460
Method: as §1, §2

[7] = target: T2, XPO1 (Jurkat XPO1^WT) (Homo sapiens, UniProt O14980); assay: RanBP1 immunofluorescence (XPO1-mediated nuclear export) in wild-type Jurkat cells; type: cell-based; conditions: positive control at 1 μM, 3 h
T2 construct: RanBP1 immunofluorescence staining was performed on both wild type and mutant XPO1^C528S Jurkat cells; endogenous in cells; host or cells: wild-type Jurkat leukemia cells
Method: as §3, §4, §5

[8] = system: DND-41 cells; assay: Cell proliferation assay (IncuCyte confluence), DND-41; type: cell-based; conditions: DND41; DND-41 acute lymphoblastic leukemia; 72 h; mean of two independent experiments ± SEM; read-out: IC50 antiproliferative activity DND-41
Method: as §1, §2

[9] = system: K-562 cells; assay: Cell proliferation assay (IncuCyte confluence), K-562; type: cell-based; conditions: Homo sapiens, K562; K-562 chronic myeloid leukemia; 72 h; mean of two independent experiments ± SEM; read-out: IC50 antiproliferative activity K-562
Method: as §1, §2

[10] = system: HCT-116 cells; assay: Cell proliferation assay (IncuCyte confluence), HCT-116; type: cell-based; conditions: Homo sapiens; HCT-116 colorectal carcinoma; 72 h; mean of two independent experiments ± SEM; read-out: IC50 antiproliferative activity HCT-116
Method: as §1, §2

T1 sequence (O14980 whole entry C528S): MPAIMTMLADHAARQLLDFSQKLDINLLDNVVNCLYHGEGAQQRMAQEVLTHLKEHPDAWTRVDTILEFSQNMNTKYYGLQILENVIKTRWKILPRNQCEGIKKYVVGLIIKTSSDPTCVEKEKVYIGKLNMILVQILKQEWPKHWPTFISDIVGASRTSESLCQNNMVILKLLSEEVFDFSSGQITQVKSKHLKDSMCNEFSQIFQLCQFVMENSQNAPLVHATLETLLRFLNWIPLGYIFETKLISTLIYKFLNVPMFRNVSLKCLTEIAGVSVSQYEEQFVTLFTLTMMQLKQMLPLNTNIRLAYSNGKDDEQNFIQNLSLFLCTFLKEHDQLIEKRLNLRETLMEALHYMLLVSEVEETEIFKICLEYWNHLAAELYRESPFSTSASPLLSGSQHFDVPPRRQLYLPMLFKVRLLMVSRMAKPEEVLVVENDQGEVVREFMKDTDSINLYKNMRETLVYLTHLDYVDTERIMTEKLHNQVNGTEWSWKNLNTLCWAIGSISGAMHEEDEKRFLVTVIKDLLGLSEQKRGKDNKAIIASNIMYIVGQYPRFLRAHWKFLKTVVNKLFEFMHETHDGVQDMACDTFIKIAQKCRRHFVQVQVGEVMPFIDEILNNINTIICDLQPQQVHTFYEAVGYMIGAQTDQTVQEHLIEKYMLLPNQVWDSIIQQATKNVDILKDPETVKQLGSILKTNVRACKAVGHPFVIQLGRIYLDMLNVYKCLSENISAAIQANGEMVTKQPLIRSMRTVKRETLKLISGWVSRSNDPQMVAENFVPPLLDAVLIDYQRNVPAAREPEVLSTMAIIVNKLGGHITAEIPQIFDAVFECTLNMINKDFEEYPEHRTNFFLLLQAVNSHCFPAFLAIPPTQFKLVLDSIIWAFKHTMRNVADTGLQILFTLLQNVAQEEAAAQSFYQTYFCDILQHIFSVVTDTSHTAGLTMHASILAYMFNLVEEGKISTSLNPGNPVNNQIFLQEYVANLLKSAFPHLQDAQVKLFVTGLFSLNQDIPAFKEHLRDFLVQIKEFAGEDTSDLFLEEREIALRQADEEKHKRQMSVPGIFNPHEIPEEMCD

In the case of `N#C/C(=C\c1cncnc1)C(=O)c1ccc2ccccc2c1` [Compound 21, (E)-2-Cyano-1-(naphthalene-2-yl)-3-(pyrimidin-5-yl)prop-2-en-1-one], the “Stability in PBS” value [1] is reported as “very unstable and readily decomposed”.

With `O=C(/C=C\n1cnc(-c2cc(C(F)(F)F)cc(C(F)(F)F)c2)n1)NNc1cnccn1` [KPT-330, selinexor, reference compound] the IC50 [2] was 70 ± 30 nM, the “Subcellular localization of RanBP1, mutant XPO1^C528S Jurkat” value [3] was “RanBP1 remained in the cytoplasm” and the IC50 [4] was 110 ± 100 nM. The IC50 [5] was 400 ± 400 nM, the IC50 [6] was 120 ± 80 nM and the “Subcellular localization of RanBP1, wild-type Jurkat” value [7] was “RanBP1 was accumulated in the nucleus”. It also gave an IC50 [8] of 50 nM, an IC50 [9] of 90 nM and an IC50 [10] of 100 ± 100 nM.
